Test system: NCI-H23 complex spheroids with HUVEC/MSC, viability
Experiment: Anticancer human tumor NCI-H23 cell line growth inhibition [RAS];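 further: spheroids exposed to compound for 7 days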;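 on viability, T/C: 100% = DMSO vehicle control viability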
Conditions: for IC50: curve of first compound; for viability, T/C: stronger effect = lower value
Outline: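 Multi-cell-type spheroids: tumor cells plus HUVEC endothelial cells and mesenchymal stem cells. RAS-pathway inhibitors were combined with targeted agents, each dosed in half-log steps down from clinical Cmax, or from 10 microM when Cmax was unknown.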

[1] = second compound 0.000949 µM, first compound 0.00316 µM
[2] = second compound 0.000949 µM, first compound 0.01 µM
[3] = second compound 0.000949 µM, first compound 0.0316 µM
[4] = second compound 0.000949 µM, first compound 0.1 µM
[5] = second compound 0.000949 µM, first compound 0.316 µM
[6] = second compound 0.000949 µM, first compound 1 µM
[7] = second compound 0.003 µM, first compound 0.00316 µM
[8] = second compound 0.003 µM, first compound 0.01 µM
[9] = second compound 0.003 µM, first compound 0.0316 µM
[10] = second compound 0.003 µM, first compound 0.1 µM
[11] = second compound 0.003 µM, first compound 0.316 µM
[12] = second compound 0.003 µM, first compound 1 µM
[13] = second compound 0.00949 µM, first compound 0.00316 µM
[14] = second compound 0.00949 µM, first compound 0.01 µM
[15] = second compound 0.00949 µM, first compound 0.0316 µM
[16] = second compound 0.00949 µM, first compound 0.1 µM
[17] = second compound 0.00949 µM, first compound 0.316 µM
[18] = second compound 0.00949 µM, first compound 1 µM
[19] = second compound 0.03 µM, first compound 0.00316 µM
[20] = second compound 0.03 µM, first compound 0.01 µM
[21] = second compound 0.03 µM, first compound 0.0316 µM
[22] = second compound 0.03 µM, first compound 0.1 µM
[23] = second compound 0.03 µM, first compound 0.316 µM
[24] = second compound 0.03 µM, first compound 1 µM
[25] = second compound 0.0949 µM, first compound 0.00316 µM
[26] = second compound 0.0949 µM, first compound 0.01 µM
[27] = second compound 0.0949 µM, first compound 0.0316 µM
[28] = second compound 0.0949 µM, first compound 0.1 µM
[29] = second compound 0.0949 µM, first compound 0.316 µM
[30] = second compound 0.0949 µM, first compound 1 µM
[31] = second compound 0.3 µM, first compound 0.00316 µM
[32] = second compound 0.3 µM, first compound 0.01 µM
[33] = second compound 0.3 µM, first compound 0.0316 µM
[34] = second compound 0.3 µM, first compound 0.1 µM
[35] = second compound 0.3 µM, first compound 0.316 µM
[36] = second compound 0.3 µM, first compound 1 µM

CCN1CCN(Cc2ccc(Nc3ncc(F)c(-c4cc(F)c5nc(C)n(C(C)C)c5c4)n3)nc2)CC1 + CCn1c(-c2cccnc2C(C)OC)c2c3cc(ccc31)N1CCOC(CC(NC(=O)C(C(C)C)N(C)C(=O)C3(F)CCN(C(=O)C#CC(C)(C)N(C)C)CC3)C(=O)N3CCCC(N3)C(=O)OCC(C)(C)C2)C1
IC50 (second compound 0.000949 µM): < 3.16 nM | IC50 (second compound 0.003 µM): < 3.16 nM | IC50 (second compound 0.00949 µM): < 3.16 nM | IC50 (second compound 0.03 µM): < 3.16 nM | IC50 (second compound 0.0949 µM): < 3.16 nM | IC50 (second compound 0.3 µM): < 3.16 nM | viability, T/C [1]: 27.6% | viability, T/C [2]: 26.4% | viability, T/C [3]: 14% | viability, T/C [4]: 15.9% | viability, T/C [5]: 14.6% | viability, T/C [6]: 10.6% | viability, T/C [7]: 28.6% | viability, T/C [8]: 20.8% | viability, T/C [9]: 16.3% | viability, T/C [10]: 15% | viability, T/C [11]: 12.9% | viability, T/C [12]: 10.8% | viability, T/C [13]: 26.9% | viability, T/C [14]: 21.9% | viability, T/C [15]: 16% | viability, T/C [16]: 14.2% | viability, T/C [17]: 12.3% | viability, T/C [18]: 11.5% | viability, T/C [19]: 30.6% | viability, T/C [20]: 21.5% | viability, T/C [21]: 18% | viability, T/C [22]: 12.5% | viability, T/C [23]: 11.2% | viability, T/C [24]: 13.2% | viability, T/C [25]: 23.4% | viability, T/C [26]: 22.1% | viability, T/C [27]: 15.8% | viability, T/C [28]: 13.2% | viability, T/C [29]: 10.2% | viability, T/C [30]: 14.9% | viability, T/C [31]: 22.2% | viability, T/C [32]: 19.3% | viability, T/C [33]: 14.2% | viability, T/C [34]: 12.1% | viability, T/C [35]: 12% | viability, T/C [36]: 14.2%

O=C(c1ccc(F)c(F)c1Nc1ccc(I)cc1F)N1CC(O)([C@@H]2CCCCN2)C1 + CCn1c(-c2cccnc2C(C)OC)c2c3cc(ccc31)N1CCOC(CC(NC(=O)C(C(C)C)N(C)C(=O)C3(F)CCN(C(=O)C#CC(C)(C)N(C)C)CC3)C(=O)N3CCCC(N3)C(=O)OCC(C)(C)C2)C1
IC50 (second compound 0.000949 µM): < 3.16 nM | IC50 (second compound 0.003 µM): 26 nM | IC50 (second compound 0.00949 µM): < 3.16 nM | IC50 (second compound 0.03 µM): < 3.16 nM | IC50 (second compound 0.0949 µM): < 3.16 nM | IC50 (second compound 0.3 µM): < 3.16 nM | viability, T/C [1]: 32.3% | viability, T/C [2]: 33.2% | viability, T/C [3]: 26.2% | viability, T/C [4]: 31.8% | viability, T/C [5]: 16.7% | viability, T/C [6]: 6.86% | viability, T/C [7]: 112% | viability, T/C [8]: 54.8% | viability, T/C [9]: 51.7% | viability, T/C [10]: 42.8% | viability, T/C [11]: 27.8% | viability, T/C [12]: 10.3% | viability, T/C [13]: 34.5% | viability, T/C [14]: 25.4% | viability, T/C [15]: 29.8% | viability, T/C [16]: 25.9% | viability, T/C [17]: 14.6% | viability, T/C [18]: 8.22% | viability, T/C [19]: 30.1% | viability, T/C [20]: 30.7% | viability, T/C [21]: 28.3% | viability, T/C [22]: 25.4% | viability, T/C [23]: 12.6% | viability, T/C [24]: 9.45% | viability, T/C [25]: 29.1% | viability, T/C [26]: 30.2% | viability, T/C [27]: 30.9% | viability, T/C [28]: 22.3% | viability, T/C [29]: 11% | viability, T/C [30]: 9.76% | viability, T/C [31]: 29.4% | viability, T/C [32]: 26.3% | viability, T/C [33]: 26.5% | viability, T/C [34]: 19.8% | viability, T/C [35]: 11% | viability, T/C [36]: 9.07%

Source: PubChem BioAssay AID2060885 (Molecular Pharmacology Branch, DTP, NCI, 2025)
